Experimental data as given in BindingDB's records for doi:10.1002/cmdc.202100576 (Experimental Drug Development Centre, 2021).
Several values for one entry are separate records, joined by “and”; a condition that tells them apart may be missing. Equal entries are not always repeated.

Experiments:
Assay in all cases: Various Assay
[1] = target: Replicase polyprotein 1ab (Severe acute respiratory syndrome coronavirus, UniProt P0C6X7)
[2] = target: Replicase polyprotein 1ab (Severe acute respiratory syndrome coronavirus 2, UniProt P0DTD1)
[3] = target: Replicase polyprotein 1ab (Middle East respiratory syndrome-related coronavirus (isolate United Kingdom/H123990006/2012), UniProt K9N7C7)

| Structure (SMILES) | IC50 [1] | other results |
| --- | --- | --- |
| O=C[C@H](CC1CCNC1=O)NC(=O)[C@H](Cc1ccccc1)NC(=O)c1cc2cc(F)ccc2[nH]1 (some centres undefined) | 111 nM |  |
| COc1cccc2[nH]c(C(=O)N(C)[C@@H](CC(C)C)C(=O)N[C@@H](C[C@@H]3CCNC3=O)C(=O)CO)cc12 [WO2005113580-Ex-29] | 83 nM |  |
| COc1cccc2[nH]c(C(=O)N[C@@H](CC(C)C)C(=O)N[C@@H](C[C@@H]3CCNC3=O)C(=O)COC(=O)C3CC3)cc12 [WO2005113580-Ex-37] | 162 nM |  |
| COc1cccc2[nH]c(C(=O)N[C@@H](CC(C)C)C(=O)N[C@@H](C[C@@H]3CCNC3=O)C(C)=O)cc12 [WO2006061714, P38.5] | 2300 nM |  |
| CC(C)C[C@H](NC(=O)c1nc2ccccc2[nH]1)C(=O)N[C@H](C=O)C[C@@H]1CCNC1=O [WO2006061714-ID-09] | 30 nM |  |
| O=C(Nc1ccc(NC(=O)c2cc(B(O)O)cc([N+](=O)[O-])c2)cc1)c1cc(B(O)O)cc([N+](=O)[O-])c1 [acs.jmedchem.1c00409_ST.31] |  | Ki [1]: 22 nM |
| O=C(Oc1ccc(OC(=O)c2cc(B(O)O)cc([N+](=O)[O-])c2)cc1)c1cc(B(O)O)cc([N+](=O)[O-])c1 [cmdc.202100576, 4b] |  | Ki [1]: 6700 nM |
| Nc1cc(B(O)O)cc(C(=O)OCc2cccc(B(O)O)c2)c1 [cmdc.202100576, 4c] |  | Ki [1]: 3500 nM |
| O=C(O)c1cc(O)cc(B(O)O)c1 [cmdc.202100576, 4d] |  | Ki [1]: 3500 nM |
| O=C(Oc1c(Cl)cc(Cl)cc1[N+](=O)[O-])c1cc(B(O)O)cc([N+](=O)[O-])c1 [cmdc.202100576, 4e] |  | Ki [1]: 6900 nM |
| CCOC(=O)/C=C/[C@@H](C[C@H]1CCNC1=O)NC(=O)[C@@H](CC(C)C)NC(=O)[C@H](NC(=O)OCc1ccccc1)C(C)OC(C)(C)C (some centres undefined) [cmdc.202100576, 5b] |  | Ki [1]: 58 nM |
| CC(C)C[C@H](NC(=O)[C@@H](NC(=O)OCc1ccccc1)C(C)OC(C)(C)C)C(=O)N[C@H](/C=C/C(=O)OC1CC1)C[C@@H]1CCNC1=O (some centres undefined) [cmdc.202100576, 5e] |  | Ki [1]: 99 nM |
| COC(=O)/C=C/[C@H](C[C@@H]1CCNC1=O)NC(=O)[C@H](CC(C)C)NC(=O)[C@@H](NC(=O)OCc1ccccc1)C(C)NC(=O)C(C)(C)C (some centres undefined) [cmdc.202100576, 5f] |  | Ki [1]: 38 nM |
| O=C(Oc1ccc(S(=O)(=O)c2ccc(OC(=O)C(Cl)=C(Cl)Cl)cc2Cl)cc1)C(Cl)=C(Cl)Cl [cmdc.202100576, 7b] | 900 nM |  |
| O=C(Sc1nnc(C(F)(F)F)[nH]1)C1CCC(C#Cc2ccccc2)O1 (centres undefined) [cmdc.202100576, 7c] | 3000 nM |  |
| O=c1c(O[C@@H]2O[C@H](CO[C@@H]3OC[C@H](O)[C@H](O)[C@H]3O)[C@@H](O)[C@H](O)[C@H]2O)c(-c2ccc(O)c(O)c2)oc2cc(O)cc(O)c12 [cmdc.202100576, 12c] | 31600 nM |  |
| CC1CCN(C(=O)c2ccc3c(c2)C(=O)C(=O)N3Cc2ccc3ccccc3c2)CC1 [cmdc.202100576, 13b] | 19700 nM |  |
| O=C1C(=O)N(Cc2ccccc2)c2ccc(C(=O)N3CCCC3)cc21 [cmdc.202100576, 13c] | 22900 nM |  |
| CN1C(=O)C(=O)c2cc(C(=O)N3CCOCC3)ccc21 [cmdc.202100576, 13d] | 36400 nM |  |

| Structure (SMILES) | IC50 [1] | other results |
| --- | --- | --- |
| O=C1C(=O)N(Cc2ccc3ccccc3c2)c2ccc(C(=O)N3CCCC3)cc21 [cmdc.202100576, 13e] | 70300 nM |  |
| O=C1C(=O)N(Cc2ccc3ccccc3c2)c2ccc(C(=O)N3CCCCC3)cc21 [cmdc.202100576, 13f] | 87800 nM |  |
| CC(C)C[C@@H](NC(=O)OCc1ccccc1)C(=O)N[C@@H](C=O)CC1CCNC1=O (some centres undefined) [cmdc.202100576, 14b] | 3500 nM |  |
| CC(C)C[C@@H](NC(=O)OCc1ccccc1)C(=O)N[C@H](CC1CCNC1=O)C(=O)C(=O)NC(C)C (some centres undefined) [cmdc.202100576, 14d] | 4700 nM |  |
| CC(C)C[C@@H](NC(=O)[C@H](Cc1cccc2ccccc12)NC(=O)OCc1ccccc1)C(=O)N[C@@H](C=O)CC1CCNC1=O (some centres undefined) [cmdc.202100576, 14e] | 230 nM |  |
| CC(C)C[C@@H](NC(=O)[C@H](Cc1cccc2ccccc12)NC(=O)OCc1ccccc1)C(=O)N[C@H](CC1CCNC1=O)C(=O)C(=O)NC(C)C (some centres undefined) [cmdc.202100576, 14f] | 810 nM |  |
| O=C1c2c(O)cc(O)cc2O[C@@H](c2ccc(O)c(O)c2)[C@@H]1O [cmdc.202100576, 15] | 73000 nM |  |
| CC(C)C[C@H]1C(=O)N[C@H](C=O)CCC(=O)NCCCn2cc(nn2)C[C@@H]1CC(=O)OCc1ccccc1 [cmdc.202100576, 16c] | 15500 nM |  |
| Cc1ccc(SSc2nccs2)cc1 [cmdc.202100576, 17b] | 1300 nM |  |
| CC(=O)Nc1cnc(SSc2ccccc2[N+](=O)[O-])s1 [cmdc.202100576, 17c] | 1900 nM |  |
| O=[N+]([O-])c1ccccc1SSc1nccs1 [cmdc.202100576, 17d] | 2000 nM |  |
| COC(=O)c1c[nH]c(SSc2ccccc2[N+](=O)[O-])n1 [cmdc.202100576, 17e] | 2000 nM |  |
| Fc1ccc(SSc2nccs2)cc1 [cmdc.202100576, 17f] | 2200 nM |  |
| O=C[C@H](CC1CCNC1=O)NC(=O)[C@H](Cc1ccccc1)NC(=O)c1cc2ccccc2[nH]1 (some centres undefined) [cmdc.202100576, 18b] | 30 nM | IC50 [2]: 34 nM |
| C=C(N[C@H](C=O)CC1CCNC1=O)[C@H](Cc1ccccc1)NC(=O)[C@@H](NC(=O)c1cncc(F)c1)C(C)C (some centres undefined) [cmdc.202100576, 18c] | 35 nM |  |
| CC(C)[C@H](NC(=O)c1cc2ccccc2[nH]1)C(=O)N[C@@H](Cc1ccccc1)C(=O)N[C@H](C=O)CC1CCNC1=O (some centres undefined) [cmdc.202100576, 18d] | 50 nM | IC50 [2]: 68 nM |
| O=C[C@H](CC1CCNC1=O)NC(=O)[C@H](Cc1ccccc1)NC(=O)c1ccc2c(c1)OCO2 (some centres undefined) [cmdc.202100576, 18e] | 100 nM | IC50 [2]: 78 nM |
| CC(C)C(=O)Nc1ccc(N(C(=O)Cn2nnc3ccccc32)[C@H](C(=O)NCc2ccccc2)c2ccc(Cl)c(F)c2)cc1 [cmdc.202100576, 19b] | 800 nM |  |
| CC(C)C(=O)Nc1ccc(N(C(=O)Cn2nnc3ccccc32)[C@H](C(=O)NCc2ccccc2)c2ccc(O)cc2)cc1 [cmdc.202100576, 19c] | 1100 nM |  |

| Structure (SMILES) | IC50 [1] | other results |
| --- | --- | --- |
| CC(C)C(=O)Nc1ccc(N(C(=O)Cn2nnc3ccccc32)[C@H](C(=O)NCc2ccccc2)c2cccc(F)c2)cc1 [cmdc.202100576, 19d] | 1600 nM |  |
| CC(C)(C)c1ccc(N(C(=O)c2c[nH]cn2)[C@H](C(=O)NC2CCCC2)c2cccnc2)cc1 [cmdc.202100576, 19e] | 1700 nM |  |
| O=C(Nc1ccc(N(C(=O)Cn2nnc3ccccc32)[C@H](C(=O)NCc2ccccc2)c2ccsc2)cc1)C1CC1 [cmdc.202100576, 19f] | 2000 nM |  |
| CC(C)C[C@H](NC(=O)OC1CCN(C(=O)OC(C)(C)C)CC1)C(=O)N[C@@H](C[C@@H]1CCNC1=O)C(O)S(=O)(=O)O (some centres undefined) [cmdc.202100576, 20b] |  | IC50 [3]: 300 nM and 600 nM |
| CC(C)C[C@H](NC(=O)OC1CCN(S(C)(=O)=O)CC1)C(=O)N[C@@H](C[C@@H]1CCNC1=O)C(O)S(=O)(=O)O (some centres undefined) [cmdc.202100576, 20c] |  | IC50 [3]: 500 nM |
| CC(C)C[C@H](NC(=O)OC1(Cc2ccccc2)CCN(C(=O)OC(C)(C)C)CC1)C(=O)N[C@@H](C[C@@H]1CCNC1=O)C(O)S(=O)(=O)O (some centres undefined) [cmdc.202100576, 20d] |  | IC50 [3]: 600 nM |
| CC(C)C[C@H](NC(=O)OCCc1cccc(Cl)c1)C(=O)N[C@@H](C[C@@H]1CCNC1=O)C(O)S(=O)(=O)O (some centres undefined) [cmdc.202100576, 20f] |  | IC50 [3]: 700 nM |
| CC(C)(C)NC(=O)C(=O)[C@H](C[C@@H]1CCNC1=O)NC(=O)[C@H](CC1CCCCC1)NC(=O)[C@H](Cc1cccc2ccccc12)NC(=O)OCc1ccc(OCN2CCOCC2)cc1 [cmdc.202100576, 22b] | 6.6 nM |  |
| COC(C)[C@H](NC(=O)OCc1ccccc1)C(=O)N[C@@H](CC(C)C)C(=O)N[C@@H](C[C@@H]1CCNC1=O)C(=O)C(=O)NC(C)C (some centres undefined) [cmdc.202100576, 22c] | 6.8 nM |  |
| CC(C)C[C@H](NC(=O)[C@H](CN(C)C)NC(=O)OCc1ccccc1)C(=O)N[C@@H](C[C@@H]1CCNC1=O)C(=O)C(=O)NC(C)(C)C [cmdc.202100576, 22d] | 7 nM |  |
| CC(C)C[C@H](NC(=O)[C@H](CN1CCOCC1)NC(=O)OCc1ccccc1)C(=O)N[C@@H](C[C@@H]1CCNC1=O)C(=O)C(=O)NC(C)C [cmdc.202100576, 22e] | 7 nM |  |
| CC(C)C[C@H](NC(=O)[C@H](CN1CCC(F)CC1)NC(=O)OCc1ccccc1)C(=O)N[C@@H](C[C@@H]1CCNC1=O)C(=O)C(=O)NC(C)C [cmdc.202100576, 22f] | 7 nM |  |
| O=C(NC1CCCCC1)C(=O)[C@H](C[C@@H]1CCCNC1=O)NC(=O)[C@H](CC1CCCCC1)NC(=O)c1cc2ccccc2o1 [cmdc.202100576, 23b] |  | IC50 [3]: < 1 nM |
| O=C(NCc1ccccc1)C(=O)[C@H](C[C@@H]1CCCNC1=O)NC(=O)[C@H](Cc1ccccc1)NC(=O)c1cc2ccccc2[nH]1 [cmdc.202100576, 23c] |  | IC50 [3]: < 1 nM |
| O=C(NCc1ccccc1)C(=O)[C@H](C[C@@H]1CCCNC1=O)NC(=O)[C@H](Cc1ccccc1)NC(=O)c1cnc2ccccc2n1 [cmdc.202100576, 23d] |  | IC50 [3]: 2 nM |
| O=C(NCc1ccccc1)C(=O)[C@H](C[C@@H]1CCCNC1=O)NC(=O)[C@H](CC1CCCCC1)NC(=O)c1cc2ccccc2[nH]1 [cmdc.202100576, 23e] |  | IC50 [3]: 2 nM |
| O=C(NCc1ccccc1)C(=O)[C@H](C[C@@H]1CCCNC1=O)NC(=O)[C@H](CC1CCCCC1)NC(=O)c1cnc2ccccc2n1 [cmdc.202100576, 23f] |  | IC50 [3]: 5 nM |
| Cc1cc(C(=O)N[C@@H](C)C(=O)N[C@H](C(=O)N[C@@H](CC(C)C)C(=O)N[C@H](C=CC(=O)OCc2ccccc2)C[C@@H]2CCNC2=O)C(C)C)no1 [the N3 Compound] | 9000 nM |  |
